PMC7948648 (The Journal of Biological Chemistry, 2021)

What was measured:
PARP1 = test system: T1, PARP1; set-up: method as in PMID 28001384; details: selectivity PARP1 over TNKS1; cited from earlier work
T1 construct: To assess if these observations extend to endogenous cellular settings; endogenous in cells; host or cells: NCI-H1048 cell lysate

[1] = clinical dose of 1 mg once a day; cited from earlier work
TNKS1 = experiment: Biotin probe competition pulldown in NCI-H1048 cell lysate, Western blot for TNKS1; details: talazoparib versus olaparib, 30 min pretreatment, biotin probes
Description: Proteins bound to streptavidin were released and subjected to Western blot analysis for either PARP1 (top) or TNKS1 (bottom).
Lysate was then spun at 1500 rpm for 3 min, and the soluble fraction was transferred to a new tube on ice.
Conjugated beads were washed three times with wash buffer (50 mM Hepes [Fisher Scientific AAJ60712AK], 150 mM NaCl [Invitrogen, AM9759], and 1% nonyl phenoxypolyethoxylethanol [Fisher Scientific NC9168253]) rotating for 3 min. All PARP inhibitor pulldowns were from 1 mg/ml of protein lysate.

[2] = molecular target: the molecule itself; experiment: crystal structure; TNKS1 ART domain, apo and with talazoparib, olaparib, niraparib or veliparib; sitting-drop vapor diffusion at 4 °C; several crystal forms with multiple molecules in the asymmetric unit

Molecule: CN(C)CC(=O)Nc1ccc2[nH]c(=O)c3ccccc3c2c1 [PJ34]
- fold lower IC50 for PARP1 than for TNKS1 (PARP1): over 25 fold

Molecule: Cn1ncnc1[C@H]1c2n[nH]c(=O)c3cc(F)cc(c23)N[C@@H]1c1ccc(F)cc1 [Talazoparib, talazoparib]
- free plasma concentration [1]: ~17 nM
- greater ability to prevent binding to TNKS1 (TNKS1): approximately 1000 fold

B1: tankyrase1 (TNKS1) ART domain (residues 1104-1314) (domain or fragment, UniProt O95271 1104-1314, looked up)
chain: QGTILLDLAPEDKEYQSVEEEMQSTIREHRDGGNAGGIFNRYNVIRIQKVVNKKLRERFCHRQKEVSEENHNHHNERMLFHGSPFINAIIHKGFDERHAYIGGMFGAGIYFAENSSKSNQYVYGIGGGTGCPTHKDRSCYICHRQMLFCRVTLGKSFLQFSTMKMAHAPPGHHSVIGRPSVNGLAYAEYVIYRGEQAYPEYLITYQIMKPE
notes: tankyrase1 (TNKS1, PARP5a), ART domain, residues 1104-1314; also called PARP5a; not shown: His6, N-terminal, cleaved
- binding result [2]: binds
